Results published in patent US11092608B2, “Methods of identifying modulators of CASTOR1-GATOR2 interaction and use of same to modulate mTORC1” (Whitehead Institute for Biomedical Research, priority 2015, dated 2021).
Where “and” joins values, the source holds several entries; their conditions need not be identical. Equal entries are not always repeated.

Assays:
CASTOR1 homodimer = molecular target: T1, CASTOR1 homodimer (Homo sapiens, UniProt Q8WTX7); test: Arginine binding assay (equilibrium / competition binding with [3H]-labeled amino acids); conditions: for binding of radiolabeled amino acid to CASTOR1 homodimer: immunopurified from HEK-293T cells, competed by excess nonradiolabelled arginine
T1 construct: made in house; host or cells: HEK-293T (transfected, pRK5-based cDNA plasmids; anti-FLAG immunoprecipitates)
T1 sequence (Q8WTX7 1-329) 1: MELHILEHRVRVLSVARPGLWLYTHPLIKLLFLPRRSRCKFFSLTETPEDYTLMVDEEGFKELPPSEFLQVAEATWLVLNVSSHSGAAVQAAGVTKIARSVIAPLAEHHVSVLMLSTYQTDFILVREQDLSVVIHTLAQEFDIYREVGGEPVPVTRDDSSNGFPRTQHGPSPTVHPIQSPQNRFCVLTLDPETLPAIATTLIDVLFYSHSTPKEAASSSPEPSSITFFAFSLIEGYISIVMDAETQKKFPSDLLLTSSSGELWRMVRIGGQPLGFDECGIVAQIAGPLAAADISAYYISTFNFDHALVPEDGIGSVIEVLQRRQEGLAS
T1 sequence (Q8WTX7 1-329) 2: T1 sequence (Q8WTX7 1-329) 1
Protocol: (§1) Four million HEK-293T cells were plated in a 15 cm plate four days prior to the experiment. Forty-eight hours after plating, the cells were transfected via the polyethylenimine method (Boussif et al., 1995) with the pRK5-based cDNA expression plasmids indicated in the figures in the following amounts: 15 μg FLAG-Rap2A, 400 ng CASTOR1-FLAG or CASTOR2-FLAG with 1200 ng CASTOR1-HA or 1200 ng CASTOR2-HA, 400 ng CASTOR1 1280A-FLAG with 1200 ng CASTOR1 1280A-HA. The total amount of plasmid DNA in each transfection was normalized to 15 μg with empty pRK5. Forty-eight hours after transfection cells were lysed as previously described (Wolfson et al., 2015). If multiple samples of the same type were represented in the experiment, the cell lysates were combined, mixed, and evenly distributed amongst the relevant tubes.
(§2) Anti-FLAG immunoprecipitates were prepared as previously described, with the exception that prior to incubation with lysates, the beads were blocked by rotating in 1 μg/μl bovine serum albumin (BSA) for 20 minutes at 4° C. and subsequently washed twice in lysis buffer. Thirty μl of the 50% slurry of beads in lysis buffer was added to each of the clarified cell lysates and incubated for 90 minutes.
(§3) For the binding assays, all immunoprecipitates were washed in pairs once with Triton wash buffer, three times with Triton lysis buffer supplemented with 500 mM NaCl, and three times with cytosolic buffer (0.1% Triton, 40 mM HEPES pH 7.4, 10 mM NaCl, 150 mM KCl, 2.5 mM MgCl2). All the liquid was subsequently aspirated and a 15 μl aliquot of proteins bound to the beads was incubated for one hour on ice in cytosolic buffer with the appropriate amount of [^3H]-labeled amino acids and cold amino acids. At the end of one hour, the beads were spun at 2,500 rpm for 25 seconds, aspirated, and rapidly washed three times with binding wash buffer (0.1% Triton, 40 mM HEPES pH 7.4, 150 mM NaCl). The beads were aspirated dry and resuspended in 85 μl of binding wash buffer. Three 10 μl aliquots of this mix were separately quantified using a TriCarb scintillation counter (PerkinElmer).
(§4) For each sample, an immunoprecipitation was performed in parallel. After washing four times as previously described, the beads were aspirated dry and resuspended in 50 μl FLAG elution buffer (Triton wash buffer supplemented with 300 mM NaCl and 1 mg/ml FLAG peptide), and incubated with rotation for 1 hour at 4° C. The eluent was subsequently resuspended in sample buffer. Equal volumes of the eluent were resolved by 10% SDS-PAGE and analyzed with Coomassie Blue stain. Kd values were calculated as previously described (Wolfson et al., 2015).

CASTOR2 homodimer = molecular target: T2, CASTOR2 homodimer (Homo sapiens, UniProt A6NHX0); test: Arginine binding assay (equilibrium binding with [3H]-labeled arginine); conditions: immunopurified from HEK-293T cells
T2 construct: made in house; host or cells: HEK-293T (transfected, pRK5-based cDNA plasmids; anti-FLAG immunoprecipitates)
T2 sequence (A6NHX0 1-329) 1: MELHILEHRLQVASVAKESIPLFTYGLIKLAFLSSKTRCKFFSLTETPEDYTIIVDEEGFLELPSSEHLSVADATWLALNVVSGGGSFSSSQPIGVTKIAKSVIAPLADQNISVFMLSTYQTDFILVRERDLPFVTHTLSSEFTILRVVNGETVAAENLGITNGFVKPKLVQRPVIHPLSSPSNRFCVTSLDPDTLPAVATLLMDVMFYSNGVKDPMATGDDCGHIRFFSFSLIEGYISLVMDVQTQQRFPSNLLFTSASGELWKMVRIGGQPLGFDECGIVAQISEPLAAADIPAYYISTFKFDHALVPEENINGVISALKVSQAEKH
T2 sequence (A6NHX0 1-329) 2: T2 sequence (A6NHX0 1-329) 1
Protocol: as §1, with “If multiple samples of the same type were represented in the experiment, the cell lysates were combined, mixed, and evenly distributed amongst the relevant tubes.” left out
For the binding assays, all immunoprecipitates were washed in pairs once with Triton wash buffer, three times with Triton lysis buffer supplemented with 500 mM NaCl, and three times with cytosolic buffer (0.1% Triton, 40 mM HEPES pH 7.4, 10 mM NaCl, 150 mM KCl, 2.5 mM MgCl2). […] Three 10 μl aliquots of this mix were separately quantified using a TriCarb scintillation counter (PerkinElmer).
For each sample, an immunoprecipitation was performed in parallel. […] Equal volumes of the eluent were resolved by 10% SDS-PAGE and analyzed with Coomassie Blue stain. Kd values were calculated as previously described (Wolfson et al., 2015).

[1] = molecular target: T3, CASTOR1-CASTOR2 heterodimer (Homo sapiens, UniProt Q8WTX7); test: Arginine binding assay (equilibrium / competition binding with [3H]-labeled amino acids)
T3 construct: made in house; host or cells: HEK-293T (transfected, pRK5-based cDNA plasmids; anti-FLAG immunoprecipitates)
T3 sequence (Q8WTX7 1-329): T1 sequence (Q8WTX7 1-329) 1
T3 sequence (A6NHX0 1-329 partner): T2 sequence (A6NHX0 1-329) 1
Protocol: as §1, §2, §3, §4

[2] = molecular target: T4, interaction of GATOR2 with CASTOR1 homodimer (Homo sapiens, UniProt Q8WTX7); test: In vitro CASTOR-GATOR2 dissociation assay; assay type: biochemical
T4 construct: made in house; host or cells: HEK-293T co-transfected with the CASTOR cDNAs; GATOR2 is the cells' endogenous complex, co-immunoprecipitated on anti-HA beads
T4 sequence (Q8WTX7 1-329) 1: T1 sequence (Q8WTX7 1-329) 1
T4 sequence (Q8WTX7 1-329) 2: T1 sequence (Q8WTX7 1-329) 1
Protocol: (§5) HEK-293T cells co-transfected with 40 ng CASTOR1-HA and either 80 ng CASTOR1-FLAG (CASTOR1 homodimer) or 80 ng CASTOR2-FLAG (CASTOR1-CASTOR2 heterodimer) were starved for all amino acids for 50 minutes, lysed and subjected to anti-HA immunoprecipitation as described previously. The CASTOR-GATOR2 complexes immobilized on agarose beads were washed once in Triton wash buffer, three times in Triton wash buffer supplemented with 500 mM NaCl, and then incubated for 20 minutes in 1 mL of ice-cold Triton wash buffer supplemented with 500 mM NaCl and the indicated concentrations of individual amino acids. The amount of GATOR2 that remained bound to CASTOR complexes was assayed by SDS-PAGE and immunoblotting as previously described.

[3] = molecular target: T5, interaction of GATOR2 with CASTOR1-CASTOR2 heterodimer (Homo sapiens, UniProt Q8WTX7); test: In vitro CASTOR-GATOR2 dissociation assay; assay type: biochemical
T5 construct: made in house; host or cells: HEK-293T co-transfected with the CASTOR cDNAs; GATOR2 is the cells' endogenous complex, co-immunoprecipitated on anti-HA beads
T5 sequence (Q8WTX7 1-329): T1 sequence (Q8WTX7 1-329) 1
T5 sequence (A6NHX0 1-329 partner): T2 sequence (A6NHX0 1-329) 1
Protocol: as §5

[4] = competition binding with increasing cold arginine, FLAG immunoprecipitates from HEK-293T cells
[5] = 400 μM arginine added to purified complexes

Structure (SMILES) | binding of radiolabeled amino acid to CASTOR1 homodimer (CASTOR1 homodimer) | binding of tritiated arginine to CASTOR2 homodimer (CASTOR2 homodimer) | arginine binding to CASTOR1-CASTOR2 heterodimer purified from E. coli ([1]; bacterially produced protein) | Kd [1, 4] | amount of arginine bound by CASTOR1-CASTOR2 heterodimer relative to CASTOR1 homodimer ([1]; immunopurified from HEK-293T cells) | arginine binding to CASTOR1 homodimer purified from E. coli (CASTOR1 homodimer; bacterially produced protein) | Kd (CASTOR1 homodimer; [4]) | dissociation of GATOR2 from CASTOR1 homodimer [2, 5] | EC50 ([2]; purified complexes from amino acid starved HEK-293T cells, CASTOR1 homodimer, read-out: arginine concentration for half-maximal disruption of GATOR2 interaction) [µM] | dissociation of GATOR2 from CASTOR1-CASTOR2 heterodimer [3, 5] | EC50 ([3]; purified complexes from amino acid starved HEK-293T cells, CASTOR1-CASTOR2 heterodimer, read-out: arginine concentration for half-maximal disruption of GATOR2 interaction) [µM]
NCCCC[C@H](N)C(=O)O [lysine] | neither radiolabeled leucine nor lysine bound | – | – | – | – | – | – | – | – | – | –
CC(C)C[C@H](N)C(=O)O [leucine] | neither radiolabeled leucine nor lysine bound | – | – | – | – | – | – | – | – | – | –
N=C(N)NCCC[C@H](N)C(=O)O [arginine] | bound | not | bound arginine to a comparable degree as the complexes prepared from human cells | ~30 µM and 24.2 µM | roughly half as much arginine as the CASTOR1 homodimer | bound arginine to a comparable degree as the complexes prepared from human cells | ~30 µM and 34.8 µM | sufficient to dissociate GATOR2 | 20 to 40 | sufficient to dissociate GATOR2 | 20 to 40
